Legend:
Carboplatin = compound: C1CC(C1)(C(=O)[O-])C(=O)[O-].N.N.[Pt+2] [Carboplatin]; details: max 10 µM
Method in brief: (§1)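 Cancer cell lines were dosed for 72 hours (final DMSO typically 0.2%) after 24 hours at 37°C and 5% CO2 in 1536-well plates containing 7.5 μl DMEM/F12 or RPMI with 10% FBS. Viability came from CellTiter-Glo 2.0 luminescence, scaled between blank-well and DMSO-well means, and dose responses were fitted to a two-parameter logistic curve with a non-linear mixed effects model. The single-agent IC50 was obtained from this fit.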

AZD5363 = compound: C1CN(CCC1(C(=O)N[C@@H](CCO)C2=CC=C(C=C2)Cl)N)C3=NC=NC4=C3C=CN4 [AZD5363]; details: max 10 µM
Method in brief: as §1

AZD1775 = compound: C=CCn1c(=O)c2cnc(Nc3ccc(N4CCN(C)CC4)cc3)nc2n1-c1cccc(C(C)(C)O)n1 [AZD1775]; details: max 3 µM
Method in brief: as §1

Trametinib = compound: CC(=O)Nc1cccc(-n2c(=O)n(C3CC3)c(=O)c3c(Nc4ccc(I)cc4F)n(C)c(=O)c(C)c32)c1 [Trametinib]; details: max 1 µM
Method in brief: as §1

Paclitaxel = compound: CC(=O)O[C@H]1C(=O)[C@@]2(C)[C@H]([C@H](OC(=O)c3ccccc3)[C@]3(O)C[C@H](OC(=O)[C@H](O)[C@@H](NC(=O)c4ccccc4)c4ccccc4)C(C)=C1C3(C)C)[C@]1(OC(C)=O)CO[C@@H]1C[C@@H]2O [Paclitaxel]; details: max 3 µM
Method in brief: as §1

Palbociclib = compound: CC(=O)c1c(C)c2cnc(Nc3ccc(N4CCNCC4)cn3)nc2n(C2CCCC2)c1=O [Palbociclib]; details: max 10 µM
Method in brief: as §1

AZD1390 = compound: CC(C)n1c(=O)n(C)c2cnc3cc(F)c(-c4ccc(OCCCN5CCCCC5)nc4)cc3c21 [AZD1390]; details: max 0.3 µM
Method in brief: as §1

Venetoclax = compound: CC1(C)CCC(CN2CCN(c3ccc(C(=O)NS(=O)(=O)c4ccc(NCC5CCOCC5)c([N+](=O)[O-])c4)c(Oc4cnc5[nH]ccc5c4)c3)CC2)=C(c2ccc(Cl)cc2)C1 [Venetoclax]; details: max 1 µM
Method in brief: as §1

Dasatinib = compound: CC1=C(C(=CC=C1)Cl)NC(=O)C2=CN=C(S2)NC3=CC(=NC(=N3)C)N4CCN(CC4)CCO [Dasatinib]; details: max 2 µM
Method in brief: as §1

SG3199 = compound: CC1=CN2[C@@H](C1)C=NC3=CC(=C(C=C3C2=O)OC)OCCCCCOC4=C(C=C5C(=C4)N=C[C@@H]6CC(=CN6C5=O)C)OC [SG3199]; details: max 0.001 µM
Method in brief: as §1

AZD2811 = compound: CCN(CCO)CCCOc1ccc2c(Nc3cc(CC(=O)Nc4cccc(F)c4)[nH]n3)ncnc2c1 [AZD2811]; details: max 1 µM
Method in brief: as §1

SN-38 = compound: CCc1c2c(nc3ccc(O)cc13)-c1cc3c(c(=O)n1C2)COC(=O)[C@]3(O)CC [SN-38]; details: max 0.3 µM
Method in brief: as §1

AZD0156 = compound: CN(C)CCCOc1ccc(-c2ccc3ncc4c(c3c2)n(C2CCOCC2)c(=O)n4C)cn1 [AZD0156]; details: max 3 µM
Method in brief: as §1

AZD4320 = compound: CN(CC[C@H](CSC1=CC=CC=C1)NC2=C(C=C(C=C2)S(=O)(=O)NC(=O)C3=CC=C(C=C3)N4CCC(CC4)[C@H](C5=CC=CC=C5C6=CC=C(C=C6)Cl)O)S(=O)(=O)C(F)(F)F)CCO [AZD4320]; details: max 1 µM
Method in brief: as §1

Alisertib = compound: COc1cc(Nc2ncc3c(n2)-c2ccc(Cl)cc2C(c2c(F)cccc2OC)=NC3)ccc1C(=O)O [Alisertib]; details: max 10 µM
Method in brief: as §1

Etoposide = compound: COc1cc([C@@H]2c3cc4c(cc3[C@@H](O[C@@H]3O[C@@H]5CO[C@@H](C)O[C@H]5[C@H](O)[C@H]3O)[C@H]3COC(=O)[C@H]23)OCO4)cc(OC)c1O [Etoposide]; details: max 10 µM
Method in brief: as §1

Gefitinib = compound: COc1cc2ncnc(Nc3ccc(F)c(Cl)c3)c2cc1OCCCN1CCOCC1 [Gefitinib]; details: max 10 µM
Method in brief: as §1

Prexasertib = compound: COc1cccc(OCCCN)c1-c1cc(Nc2cnc(C#N)cn2)n[nH]1 [Prexasertib]; details: max 1 µM
Method in brief: as §1

Doxorubicin = compound: COc1cccc2c1C(=O)c1c(O)c3c(c(O)c1C2=O)C[C@@](O)(C(=O)CO)C[C@@H]3O[C@H]1C[C@H](N)[C@H](O)[C@H](C)O1 [Doxorubicin]; details: max 1 µM
Method in brief: as §1

AZD5153 = compound: COc1nnc2ccc(N3CCC(c4ccc(OCCN5CCN(C)C(=O)[C@H]5C)cc4)CC3)nn12 [AZD5153]; details: max 1 µM
Method in brief: as §1

Lapatinib = compound: CS(=O)(=O)CCNCc1ccc(-c2ccc3ncnc(Nc4ccc(OCc5cccc(F)c5)c(Cl)c4)c3c2)o1 [Lapatinib]; details: max 10 µM
Method in brief: as §1

AZD8186 = compound: C[C@@H](Nc1cc(F)cc(F)c1)c1cc(C(=O)N(C)C)cc2c(=O)cc(N3CCOCC3)oc12 [AZD8186]; details: max 10 µM
Method in brief: as §1

Crizotinib = compound: C[C@@H](Oc1cc(-c2cnn(C3CCNCC3)c2)cnc1N)c1c(Cl)ccc(F)c1Cl [Crizotinib]; details: max 10 µM
Method in brief: as §1

Savolitinib = compound: C[C@@H](c1ccc2nccn2c1)n1nnc2ncc(-c3cnn(C)c3)nc21 [Savolitinib]; details: max 1 µM
Method in brief: as §1

AZD6738 = compound: C[C@@H]1COCCN1C2=NC(=NC(=C2)C3(CC3)[S@](=N)(=O)C)C4=C5C=CNC5=NC=C4 [AZD6738]; details: max 10 µM
Method in brief: as §1

AZD5991 = compound: Cc1c2c(nn1C)CSCc1cc(n(C)n1)CSc1cc(c3ccccc3c1)OCCCc1c(C(=O)O)n(C)c3c-2c(Cl)ccc13 [AZD5991]; details: max 1 µM
Method in brief: as §1

AZD7648 = compound: Cc1cc2ncnn2cc1Nc1ncc2c(n1)n(C1CCOCC1)c(=O)n2C [AZD7648]; details: max 10 µM
Method in brief: as §1

Taselisib = compound: Cc1nc(-c2cn3c(n2)-c2ccc(-c4cnn(C(C)(C)C(N)=O)c4)cc2OCC3)n(C(C)C)n1 [Taselisib]; details: max 10 µM
Method in brief: as §1

Selumetinib = compound: Cn1cnc2c(F)c(Nc3ccc(Br)cc3Cl)c(C(=O)NOCCO)cc21 [Selumetinib]; details: max 10 µM
Method in brief: as §1

SRA737 = compound: N#Cc1cnc(Nc2cc(NC[C@H]3CNCCO3)c(C(F)(F)F)cn2)cn1 [SRA737]; details: max 10 µM
Method in brief: as §1

MK-2206 = compound: NC1(c2ccc(-c3nc4ccn5c(=O)[nH]nc5c4cc3-c3ccccc3)cc2)CCC1 [MK-2206]; details: max 10 µM
Method in brief: as §1

Gemcitabine = compound: Nc1ccn([C@@H]2O[C@H](CO)[C@@H](O)C2(F)F)c(=O)n1 [Gemcitabine]; details: max 0.3 µM
Method in brief: as §1

[1] = compound: O=C(Nc1ccc2[nH]nc(-c3ccncc3)c2c1)[C@@H]1CCN(CC(=O)N2CCN(c3ccc(-c4ncccn4)cc3)CC2)C1; details: max 5 µM
Method in brief: as §1

Olaparib = compound: O=C(c1cc(Cc2n[nH]c(=O)c3ccccc23)ccc1F)N1CCN(C(=O)C2CC2)CC1 [Olaparib]; details: max 10 µM
Method in brief: as §1

5-Fluorouracil = compound: O=c1[nH]cc(F)c(=O)[nH]1 [5-Fluorouracil]; details: max 20 µM
Method in brief: as §1

| Cell Line | IC50, cell viability 72 h (Carboplatin) | IC50, cell viability 72 h (AZD5363) | IC50, cell viability 72 h (AZD1775) | IC50, cell viability 72 h (Trametinib) | IC50, cell viability 72 h (Paclitaxel) | IC50, cell viability 72 h (Palbociclib) | IC50, cell viability 72 h (AZD1390) | IC50, cell viability 72 h (Venetoclax) | IC50, cell viability 72 h (Dasatinib) | IC50, cell viability 72 h (SG3199) | IC50, cell viability 72 h (AZD2811) | IC50, cell viability 72 h (SN-38) | IC50, cell viability 72 h (AZD0156) | IC50, cell viability 72 h (AZD4320) | IC50, cell viability 72 h (Alisertib) | IC50, cell viability 72 h (Etoposide) | IC50, cell viability 72 h (Gefitinib) | IC50, cell viability 72 h (Prexasertib) | IC50, cell viability 72 h (Doxorubicin) | IC50, cell viability 72 h (AZD5153) | IC50, cell viability 72 h (Lapatinib) | IC50, cell viability 72 h (AZD8186) | IC50, cell viability 72 h (Crizotinib) | IC50, cell viability 72 h (Savolitinib) | IC50, cell viability 72 h (AZD6738) | IC50, cell viability 72 h (AZD5991) | IC50, cell viability 72 h (AZD7648) | IC50, cell viability 72 h (Taselisib) | IC50, cell viability 72 h (Selumetinib) | IC50, cell viability 72 h (SRA737) | IC50, cell viability 72 h (MK-2206) | IC50, cell viability 72 h (Gemcitabine) | IC50, cell viability 72 h [1] | IC50, cell viability 72 h (Olaparib) | IC50, cell viability 72 h (5-Fluorouracil) |
| --- | --- | --- | --- | --- | --- | --- | --- | --- | --- | --- | --- | --- | --- | --- | --- | --- | --- | --- | --- | --- | --- | --- | --- | --- | --- | --- | --- | --- | --- | --- | --- | --- | --- | --- | --- |
| BxPC-3 (Pancreatic Carcinoma) | > 10000 nM | > 10000 nM | 1710 nM | 487 nM | 602 nM | > 10000 nM | > 300 nM | > 1000 nM | 1850 nM | > 1 nM | > 1000 nM | > 300 nM | > 3000 nM | > 1000 nM | > 10000 nM | > 10000 nM | > 10000 nM | 68.4 nM | > 1000 nM | > 1000 nM | > 10000 nM | > 10000 nM | > 10000 nM | > 1000 nM | > 10000 nM | > 1000 nM | > 10000 nM | > 10000 nM | > 10000 nM | > 10000 nM | > 10000 nM | > 300 nM | 4090 nM | > 10000 nM | > 20000 nM |
| C-33-A (Cervical Carcinoma) | > 10000 nM | 2640 nM | 206 nM | 938 nM | 19 nM | > 10000 nM | > 300 nM | > 1000 nM | 781 nM | > 1 nM | > 1000 nM | 20.1 nM | > 3000 nM | > 1000 nM | > 10000 nM | 909 nM | 8590 nM | 52.8 nM | 217 nM | > 1000 nM | > 10000 nM | > 10000 nM | > 10000 nM | > 1000 nM | 1420 nM | > 1000 nM | > 10000 nM | > 10000 nM | > 10000 nM | > 10000 nM | > 10000 nM | 25.6 nM | > 5000 nM | > 10000 nM | > 20000 nM |
| COR-L88 (Small Cell Lung Carcinoma) | > 10000 nM | > 10000 nM | 1760 nM | > 1000 nM | > 3000 nM | > 10000 nM | > 300 nM | > 1000 nM | > 2000 nM | > 1 nM | > 1000 nM | > 300 nM | > 3000 nM | 110 nM | > 10000 nM | > 10000 nM | > 10000 nM | 45.9 nM | > 1000 nM | > 1000 nM | > 10000 nM | > 10000 nM | > 10000 nM | > 1000 nM | > 10000 nM | > 1000 nM | > 10000 nM | > 10000 nM | > 10000 nM | > 10000 nM | > 10000 nM | > 300 nM | > 5000 nM | > 10000 nM | > 20000 nM |
| CPC-N (Small Cell Lung Carcinoma) | > 10000 nM | > 10000 nM | 297 nM | > 1000 nM | 21.1 nM | > 10000 nM | > 300 nM | 721 nM | > 2000 nM | > 1 nM | 59.8 nM | > 300 nM | > 3000 nM | 178 nM | 670 nM | 5130 nM | > 10000 nM | 4.03 nM | 887 nM | 774 nM | > 10000 nM | > 10000 nM | 6990 nM | > 1000 nM | 2130 nM | > 1000 nM | > 10000 nM | 8220 nM | > 10000 nM | 1760 nM | > 10000 nM | 144 nM | > 5000 nM | > 10000 nM | > 20000 nM |
| HPAF-II (Pancreatic Carcinoma) | > 10000 nM | > 10000 nM | 1890 nM | 101 nM | 625 nM | > 10000 nM | > 300 nM | > 1000 nM | > 2000 nM | – | > 1000 nM | > 300 nM | > 3000 nM | 766 nM | – | > 10000 nM | > 10000 nM | – | – | > 1000 nM | > 10000 nM | > 10000 nM | > 10000 nM | > 1000 nM | > 10000 nM | > 1000 nM | > 10000 nM | > 10000 nM | 8240 nM | > 10000 nM | > 10000 nM | > 300 nM | > 5000 nM | > 10000 nM | > 20000 nM |
